Laboratory results taken from PMC10482825 (Scientific Reports, 2023).
Values after ≈ are worked out from the molar mass of the structure shown. Values joined by “and” are separate entries in the source; they are usually repeats but may differ in a detail not shown here. Equal values may be shown once. Where a SMILES comes first, the peptide text is derived from it.

Assays:
[1] = test system: B. subtilis; type: cell-based, Bacillus subtilis (ATCC, 11774); conditions: micro-broth dilution, 3 h peptide treatment then MHB 18 h, 37 °C, OD 600 nm
Description: (§1) The microbial strains used in this study were Bacillus subtilis (ATCC, 11774), Candida albicans (TIMM, 1768), Enterococcus faecalis (ATCC, 33186), Escherichia coli (ATCC, 11775), Klebsiella pneumoniae (ATCC, 13883), Methicillin-resistant Staphylococcus aureus (ATCC, BAA-41), Pseudomonas aeruginosa (ATCC, 10145), Salmonella enterica (ATCC, 14028), Serratia marcescens (ATCC, 13880), Staphylococcus aureus (ATCC, 25923) and Vibrio parahaemolyticus (ATCC, 17802). All microbial strains were cultivated overnight at 37 °C and 200 rpm, then subcultured and incubated for 3 h under the same incubation conditions to obtain the mid-logarithmic growth phase. The cultivated cells were washed twice with 10 mM Tris–HCl containing 5 mM D-glucose at pH 7.4 and suspended in the same buffer to be used in different assays, as previously described.
(§2) As a conclusive quantitative assessment, broth microtiter assay was used to determine the MIC values of each cryptide against B. subtilis, MRSA, S. enterica, P. aeruginosa, V. parahaemolyticus and C. albicans by following the guidelines of the Clinical and Laboratory Standards Institute (CLSI)[67], with slight modifications. Eighty microliters of 5 × 10^4 CFU/ml of each pathogen were dispensed into a 96-well polypropylene microtiter plate. The wells were then treated with 20 µl of serially diluted cryptides for 3 h at 37 °C. Gentamicin was used for positive controls at 0.2 mg/ml while an equivalent volume of acidified water was used for negative controls. The plates were then topped up with a final concentration of 1 × Mueller Hinton Broth (MHB) and incubated for 18 h under the same incubation conditions. MIC was detected as the lowest concentration of each cryptide that prevents the optically detectable microbial growth at OD = 600 nm.

[2] = test system: P. aeruginosa; type: cell-based, Pseudomonas aeruginosa (ATCC, 10145); conditions: micro-broth dilution, 3 h peptide treatment then MHB 18 h, 37 °C, OD 600 nm
Description: as §1, §2

[3] = test system: C. albicans; type: cell-based, Candida albicans (TIMM, 1768); conditions: micro-broth dilution, 3 h peptide treatment then MHB 18 h, 37 °C, OD 600 nm
Description: as §1, §2

[4] = test system: S. enterica mature biofilm; assay: Antibiofilm microtiter plate assay (mature biofilm, crystal violet); type: cell-based, Salmonella enterica (ATCC, 14028); conditions: for Minimal biofilm eradication concentration (MBEC) S. enterica: tested 12.5-200 µM
Experimental: The antibiofilm activities of the selected cryptides against S. enterica and MRSA mature biofilms were examined by microtiter plate assay as previously described, with slight modification. During the mid-logarithmic phase, S. enterica and MRSA were suspended at the density of 1.7 × 10^8 CFU/ml in MHB. Then 100 µl of each bacterial suspension was dispensed into a vinyl 96 U-shaped-well plate and incubated overnight at 37 °C. The mature biofilms were washed with 10 mM Tris–HCl containing 5 mM D-glucose at pH 7.4 and treated for 8 h with 100 µl of two-fold serially diluted cryptides, under the same incubation conditions. A sterile MHB medium was used as the positive control while an equivalent volume of acidified water was used to treat the negative controls. The treated biofilms were washed twice with the same washing buffer and stained with 0.1% crystal violet for 15 min followed by rinsing with sterile distilled water twice and then dried for 30 min at 37 °C. The stain was dissolved with 33% acetic acid and transferred to an optically clear 96-well flat bottom plate which was then measured at 600 nm.
Table S.4 Antibiofilm activities of the selected Cryptides against S. enterica and MRSA. Microbial cells were suspended at 1.7 X 10^8 CFU/ml density, during the mid-logarithmic phase in MHB. Then, 96 U-shaped -well plates were inoculated with 100 µl of microbial suspension and incubated for 48 h at 37 °C. The formed biofilms were washed with 10 mM Tris-HCl and treated with 100 µl of different concentrations of each peptide for 24 h. The treated biomasses were washed and fixed with methanol for 15 min at -20 °C before staining with 0.1 % crystal violet. The stained biofilms were dissolved in 100 µl of 33 % acetic acid and the quantities of crystal violet stains were determined by measuring absorbance at 600 nm as an indicator of the remaining biomass after treatment. Untreated cells were used as negative control [indicating 100 % biofilm integrity] while the sterile medium was used as a positive control [indicating 0 % biofilm integrity].
S. enterica MRSA S. enterica MRSA S. enterica MRSA S. enterica MRSA S. enterica MRSA

[5] = test system: Caco-2; type: cell-based, human; conditions: 24 h, serum-free medium, MTT, 37 °C, 5% CO2; mean ± SD
Experimental: (§3) The used mammalian cell lines in our study were colorectal adenocarcinoma (Caco2, ATCC-HTB-37), colorectal carcinoma (HCT 116, ATCC-CCL-247), lung carcinoma (A549, ATCC- CCL-185), cervical cancer cells (HeLa, ATCC-CCL-2), neuroblastoma (SH-SY5Y, ATCC- CRL-2266), rhabdomyosarcoma (RD, ATCC- CCL-136) and human embryonic kidney cells (HEK 293, ATCC- CRL-1573). All the cells were maintained into Dulbecco’s Modified Eagle’s Medium (DMEM) supplemented with 10% heat-inactivated fetal bovine serum, 2 mM L-Glutamine, 100 U/ml penicillin–streptomycin (Pen/Strep) at 37 °C in 5% CO2 humidified incubator.
(§4) First, the cytotoxic effect of 24 h serum deprivation on all the selected cell lines was evaluated by MTT assay, following standard protocols. Briefly, cells were seeded and maintained at 37 °C and 5% CO2 in 24-well plates until they reached 75–80% confluency (zero time). Following washing twice with 1X PBS, cells were incubated in a serum-free medium for 24 h, under the same incubation conditions. The cell viability percentages were calculated and compared to zero time as 100% viability to nullify any possible effects of serum deprivation. Thence, the cell viability percentage of each cell line in response to 24 h treatment with different concentrations of each cryptide in serum-free medium was calculated. […] All the measured cell viability percentages were normalised against the corresponding negative controls.

[6] = test system: HeLa; type: cell-based, human; conditions: 24 h, serum-free medium, MTT, 37 °C, 5% CO2; mean ± SD
Experimental: as §3, §4

[7] = test system: HEK-293; assay: MTT cytotoxicity on normal cells; type: cell-based, human; conditions: 25 µM (highest tested concentration), 24 h, serum-free medium
Experimental: as §3, §4

[8] = test system: B. subtilis; type: cell-based, Bacillus subtilis (ATCC, 11774); conditions: 20 µl of wells without growth on agar, 18 h, 37 °C
[9] = test system: MRSA; type: cell-based, Methicillin-resistant Staphylococcus aureus (ATCC, BAA-41); conditions: 20 µl of wells without growth on agar, 18 h, 37 °C
[10] = test system: P. aeruginosa; type: cell-based, Pseudomonas aeruginosa (ATCC, 10145); conditions: 20 µl of wells without growth on agar, 18 h, 37 °C
[11] = test system: C. albicans; type: cell-based, Candida albicans (TIMM, 1768); conditions: 20 µl of wells without growth on Sabouraud 4% Dextrose Agar, 18 h, 37 °C
[12] = crystal violet, absorbance 600 nm, mean ± SD

Compound | MIC (µM) B. subtilis [1] | MIC (µM) P. aeruginosa [2] | MIC (µM) C. albicans [3] | Minimal biofilm eradication concentration (MBEC) S. enterica [4] | IC50 [5] | IC50 [6] | Cell death of HEK-293 [7] | MBC (µM) B. subtilis [8] | MBC (µM) MRSA [9] | MBC (µM) P. aeruginosa [10] | MFC (µM) C. albicans [11] | Biofilm eradication S. enterica, 12.5 µM [4, 12] | Biofilm eradication S. enterica, 25 µM [4, 12] | Biofilm eradication S. enterica, 50 µM [4, 12] | Biofilm eradication S. enterica, 100 µM [4, 12] | Biofilm eradication S. enterica, 200 µM [4, 12]
CC(C)C[C@H](NC(=O)[C@H](CCCNC(=N)N)NC(=O)[C@H](Cc1c[nH]c2ccccc12)NC(=O)[C@H](CCCNC(=N)N)NC(=O)[C@H](CC(C)C)NC(=O)[C@@H](N)Cc1ccccc1)C(=O)N[C@@H](CCCCN)C(=O)N[C@@H](Cc1ccccc1)C(=O)N[C@@H](CCCCN)C(=O)N[C@@H](CO)C(=O)N[C@@H](CCCCN)C(=O)N[C@H](C(=O)N[C@@H](Cc1c[nH]c2ccccc12)C(=O)N[C@@H](CS)C(=O)N1CCC[C@H]1C(=O)O)C(C)C [AD7] (H-FLRWRLKFKSKVWCP-OH) | 0.39 µM (≈ 0.778 µg/mL) | 6.25 µM (≈ 12.5 µg/mL) | 1.56 µM (≈ 3.11 µg/mL) | 100 µM | 11.2 ± 0.7 µM | 101.5 ± 0.9 µM | less than 10% | 0.39 µM (≈ 0.778 µg/mL) | 3.12 µM (≈ 6.22 µg/mL) | 25 µM (≈ 49.9 µg/mL) | 6.25 µM (≈ 12.5 µg/mL) |  |  |  |  | 
CSCC[C@H](NC(=O)[C@H](CCCCN)NC(=O)CNC(=O)[C@H](CCCCN)NC(=O)[C@H](Cc1ccc(O)cc1)NC(=O)[C@H](CC(N)=O)NC(=O)[C@H](CC(C)C)NC(=O)[C@H](CCC(N)=O)NC(=O)[C@H](CC(C)C)NC(=O)[C@@H](N)CCCNC(=N)N)C(=O)N[C@@H](Cc1c[nH]c2ccccc12)C(=O)N[C@@H](CS)C(=O)N1CCC[C@H]1C(=O)NCC(=O)N[C@@H](Cc1c[nH]c2ccccc12)C(=O)O [AD11] (H-RLQLNYKGKMWCPGW-OH) | 0.78 µM (≈ 1.47 µg/mL) | 25 µM (≈ 47 µg/mL) | 25 µM (≈ 47 µg/mL) | 200 µM | 26.8 ± 0.4 µM | 16.8 ± 0.6 µM | less than 10% | 0.78 µM (≈ 1.47 µg/mL) | 12.5 µM (≈ 23.5 µg/mL) | > 50 µM | 25 µM (≈ 47 µg/mL) |  |  |  |  | 
RHCLRSKRPPNVCPH [AD4, cationic cryptide from P. vannamei precursor DN34505 (Pl-crustin 2), chemically synthesised] | 1.56 µM | > 50 µM | 25 µM |  | 5.4 ± 0.7 µM | 10.8 ± 0.3 µM | less than 10% | 1.56 µM | 12.5 µM | > 50 µM | 25 µM | 6.16 ± 2.7% | 12.58 ± 1.9% | 30.41 ± 1.9% | 45.13 ± 2% | 80.63 ± 1% and 80.63%
